From ChEMBL document CHEMBL5131375, “Recent Developments in the Use of Kinase Inhibitors for Management of Viral Infections” (J Med Chem, 2022) come the findings set out here.

The target in data set [1] is Receptor tyrosine-protein kinase erbB-2 (Homo sapiens, UniProt P04626).
Data set [2] relates to Huh7.5.1. As to the kind of experiment: Cytotoxicity against human Huh-7.5.1 cells at 0.9 uM. Particulars: huh7.5.1, 0.9 µM. It is filed as toxicity, cell-based.
The subject of data set [3] is Dengue virus. As to the kind of experiment: microbe, parasite or virus in culture.
The subject of data set [4] is Human immunodeficiency virus 1. Description: Antiviral activity against HIV-1 assessed as inhibition of Nef mediated replication. Type of data set: functional, organism-based.
Data set [5] can be described thus: Cytotoxicity against human CEM-T4 cells. It is filed as toxicity, cell-based.
The nature of data set [6]: in vitro. Conditions: dog.
The subject of data set [7] is Influenza A virus. Description: microbe, parasite or virus in culture. Particulars: H1N1v, A549.
Data set [8] has as its system Influenza A virus. Description: microbe, parasite or virus in culture. Conditions: A/FPV/Bratislava/79 (H7N7), MDCK-II.
Data set [9] relates to Influenza A virus. As to the kind of experiment: microbe, parasite or virus in culture. Conditions: Lung, 24 h.
In data set [10] the test system is Influenza A virus. As to the kind of experiment: microbe, parasite or virus in culture. Conditions: RB1 H1N1.
Data set [11] deals with Influenza A virus. As to the kind of experiment: microbe, parasite or virus in culture. Particulars: MB1 H5N1.
The test system of data set [12] is Influenza A virus. As to the kind of experiment: microbe, parasite or virus in culture. Conditions: GSB H5N1.
Data set [13] has as its system Influenza A virus. Description: microbe, parasite or virus in culture. Conditions: FPV H7N7.
The subject of data set [14] is Influenza A virus. As to the kind of experiment: microbe, parasite or virus in culture. Particulars: H7N7.
Data set [15] in a line: Cytotoxicity against human A549 cells. It is filed as toxicity, cell-based.
Data set [16] in a line: Cytotoxicity against human NCI-H1650 cells. Type of data set: toxicity, cell-based.
Data set [17] addresses Focal adhesion kinase 1 (Homo sapiens, UniProt Q05397). As to the kind of experiment: Inhibition of FAK (unknown origin).
Data set [18] in a line: Cytotoxicity against human NCI-H358 cells. It is filed as toxicity, cell-based.
A short description of data set [19]: Cytotoxicity against MDDC cells (unknown origin). Type of data set: toxicity, cell-based.
The test system of data set [20] is Human betaherpesvirus 5. Description: microbe, parasite or virus in culture. Type of data set: functional, organism-based.
Data set [21] addresses T1, Cyclin-dependent kinase 7 (Homo sapiens, UniProt P50613).
In data set [22] the target is T1, Cyclin-dependent kinase 7. The source holds these as a separate data set.
Data set [23] in a line: in vitro. Particulars: human, hff.
The subject of data set [24] is dengue virus type 2. As to the kind of experiment: Antiviral activity against DENV2 infected in hamster BHK-21 cells. Type of data set: functional.
Data set [25] has as its system dengue virus type 2. As to the kind of experiment: microbe, parasite or virus in culture. It is filed as functional, organism-based.
The nature of data set [26]: Cytotoxicity against microglia (unknown origin) cells. Type of data set: toxicity, cell-based.
Data set [27] relates to Influenza A virus. Description: Antiviral activity against influenza A virus (A/WSN/1933) strain. Type of data set: functional, organism-based.
For data set [28], the system named is Influenza A virus. Description: microbe, parasite or virus in culture. Conditions: A/ck/Yamaguchi/7/2004 (H5N10). It is filed as functional, organism-based.
The test system of data set [29] is Influenza A virus. As to the kind of experiment: microbe, parasite or virus in culture. It is filed as functional, organism-based. Particulars: A/Anhui/1/2013 (H7N9).
In data set [30] the test system is Influenza A virus. Description: microbe, parasite or virus in culture. It is filed as functional, organism-based. Conditions: H3N2.
The subject of data set [31] is Influenza A virus. Description: microbe, parasite or virus in culture. Type of data set: functional, organism-based. Particulars: H7N9.
Data set [32] deals with Influenza A virus. Description: microbe, parasite or virus in culture. It is filed as functional, organism-based. Particulars: H5N1.
The target in data set [33] is Tyrosine-protein kinase JAK2 (Homo sapiens, UniProt O60674). Conditions: dose 50.0 nM.
Chain of Tyrosine-protein kinase JAK2 (O60674 whole entry): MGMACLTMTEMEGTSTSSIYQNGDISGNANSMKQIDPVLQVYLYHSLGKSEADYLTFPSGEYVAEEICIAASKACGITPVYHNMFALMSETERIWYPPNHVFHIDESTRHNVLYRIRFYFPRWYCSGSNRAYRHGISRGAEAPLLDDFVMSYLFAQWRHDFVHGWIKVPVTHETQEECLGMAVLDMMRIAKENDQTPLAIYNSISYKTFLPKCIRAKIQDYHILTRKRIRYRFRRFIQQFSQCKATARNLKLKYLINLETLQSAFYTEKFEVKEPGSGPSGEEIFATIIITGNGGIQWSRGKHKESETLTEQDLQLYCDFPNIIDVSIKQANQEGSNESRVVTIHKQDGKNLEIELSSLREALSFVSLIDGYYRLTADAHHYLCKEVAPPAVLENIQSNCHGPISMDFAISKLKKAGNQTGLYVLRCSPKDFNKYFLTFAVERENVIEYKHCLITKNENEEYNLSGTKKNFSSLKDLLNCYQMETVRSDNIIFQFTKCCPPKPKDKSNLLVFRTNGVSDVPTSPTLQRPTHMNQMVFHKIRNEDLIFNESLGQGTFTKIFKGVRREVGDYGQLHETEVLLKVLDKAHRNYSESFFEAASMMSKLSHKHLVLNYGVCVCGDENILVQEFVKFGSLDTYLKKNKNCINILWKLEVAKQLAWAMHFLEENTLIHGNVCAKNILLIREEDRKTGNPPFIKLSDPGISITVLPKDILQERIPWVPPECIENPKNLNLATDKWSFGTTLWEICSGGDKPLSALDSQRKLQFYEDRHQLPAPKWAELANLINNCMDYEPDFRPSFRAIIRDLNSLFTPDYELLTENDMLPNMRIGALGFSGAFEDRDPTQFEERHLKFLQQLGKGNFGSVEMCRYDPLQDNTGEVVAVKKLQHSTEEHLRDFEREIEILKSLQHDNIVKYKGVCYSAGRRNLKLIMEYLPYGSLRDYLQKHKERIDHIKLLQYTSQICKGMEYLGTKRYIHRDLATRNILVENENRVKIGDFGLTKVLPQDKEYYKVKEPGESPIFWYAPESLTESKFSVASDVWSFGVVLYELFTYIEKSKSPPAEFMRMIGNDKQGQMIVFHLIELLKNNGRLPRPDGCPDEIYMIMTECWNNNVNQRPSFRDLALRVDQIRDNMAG
In data set [34] the test system is Zika virus. Description: Antiviral activity against ZIKV MR766 infected in 1 hr pretreated rhesus monkey LLC-MK2 cells measured after 24 to 72 hrs. It is filed as functional, organism-based.
The nature of data set [35]: Cytotoxicity against human HCT-116 cells. Type of data set: toxicity, cell-based.
Data set [36] deals with Zika virus. As to the kind of experiment: microbe, parasite or virus in culture.

Each structure is given as a SMILES string. Bounds are passed on as bounds.

T1 sequence (P50613 whole entry): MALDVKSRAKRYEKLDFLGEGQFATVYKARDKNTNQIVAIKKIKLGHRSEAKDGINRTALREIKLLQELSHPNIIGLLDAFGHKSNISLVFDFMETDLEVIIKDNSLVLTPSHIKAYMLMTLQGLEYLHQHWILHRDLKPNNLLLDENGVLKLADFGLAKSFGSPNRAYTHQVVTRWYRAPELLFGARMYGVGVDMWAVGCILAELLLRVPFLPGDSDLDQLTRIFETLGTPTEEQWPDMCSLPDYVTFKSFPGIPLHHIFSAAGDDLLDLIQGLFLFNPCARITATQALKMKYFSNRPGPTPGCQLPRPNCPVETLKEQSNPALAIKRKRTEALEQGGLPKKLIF
Chain of Focal adhesion kinase 1 (Q05397 whole entry): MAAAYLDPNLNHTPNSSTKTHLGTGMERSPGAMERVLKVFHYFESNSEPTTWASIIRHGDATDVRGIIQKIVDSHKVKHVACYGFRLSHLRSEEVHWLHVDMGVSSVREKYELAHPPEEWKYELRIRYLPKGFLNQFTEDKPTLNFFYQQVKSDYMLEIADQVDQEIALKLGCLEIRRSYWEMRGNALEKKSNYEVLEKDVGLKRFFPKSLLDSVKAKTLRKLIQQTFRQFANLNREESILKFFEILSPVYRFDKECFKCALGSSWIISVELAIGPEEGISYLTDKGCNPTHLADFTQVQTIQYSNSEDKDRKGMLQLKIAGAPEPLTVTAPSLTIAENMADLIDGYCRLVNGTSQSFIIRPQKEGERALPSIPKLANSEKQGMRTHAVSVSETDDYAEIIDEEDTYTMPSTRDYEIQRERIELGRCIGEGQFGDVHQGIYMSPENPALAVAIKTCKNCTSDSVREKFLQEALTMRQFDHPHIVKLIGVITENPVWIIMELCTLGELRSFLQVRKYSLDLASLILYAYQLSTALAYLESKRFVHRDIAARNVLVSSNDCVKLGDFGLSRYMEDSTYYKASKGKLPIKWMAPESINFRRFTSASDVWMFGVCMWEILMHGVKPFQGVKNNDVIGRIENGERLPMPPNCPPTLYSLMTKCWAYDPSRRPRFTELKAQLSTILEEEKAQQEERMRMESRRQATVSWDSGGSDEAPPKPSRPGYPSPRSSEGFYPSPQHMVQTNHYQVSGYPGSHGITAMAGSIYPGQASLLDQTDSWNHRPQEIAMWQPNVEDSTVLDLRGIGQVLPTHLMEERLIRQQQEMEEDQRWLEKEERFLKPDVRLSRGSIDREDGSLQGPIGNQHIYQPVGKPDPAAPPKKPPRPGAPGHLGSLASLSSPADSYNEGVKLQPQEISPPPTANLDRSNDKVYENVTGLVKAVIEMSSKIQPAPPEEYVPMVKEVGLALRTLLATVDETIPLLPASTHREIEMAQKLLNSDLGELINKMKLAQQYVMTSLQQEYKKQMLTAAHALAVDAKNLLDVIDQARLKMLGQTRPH
Chain of Receptor tyrosine-protein kinase erbB-2 (P04626 whole entry): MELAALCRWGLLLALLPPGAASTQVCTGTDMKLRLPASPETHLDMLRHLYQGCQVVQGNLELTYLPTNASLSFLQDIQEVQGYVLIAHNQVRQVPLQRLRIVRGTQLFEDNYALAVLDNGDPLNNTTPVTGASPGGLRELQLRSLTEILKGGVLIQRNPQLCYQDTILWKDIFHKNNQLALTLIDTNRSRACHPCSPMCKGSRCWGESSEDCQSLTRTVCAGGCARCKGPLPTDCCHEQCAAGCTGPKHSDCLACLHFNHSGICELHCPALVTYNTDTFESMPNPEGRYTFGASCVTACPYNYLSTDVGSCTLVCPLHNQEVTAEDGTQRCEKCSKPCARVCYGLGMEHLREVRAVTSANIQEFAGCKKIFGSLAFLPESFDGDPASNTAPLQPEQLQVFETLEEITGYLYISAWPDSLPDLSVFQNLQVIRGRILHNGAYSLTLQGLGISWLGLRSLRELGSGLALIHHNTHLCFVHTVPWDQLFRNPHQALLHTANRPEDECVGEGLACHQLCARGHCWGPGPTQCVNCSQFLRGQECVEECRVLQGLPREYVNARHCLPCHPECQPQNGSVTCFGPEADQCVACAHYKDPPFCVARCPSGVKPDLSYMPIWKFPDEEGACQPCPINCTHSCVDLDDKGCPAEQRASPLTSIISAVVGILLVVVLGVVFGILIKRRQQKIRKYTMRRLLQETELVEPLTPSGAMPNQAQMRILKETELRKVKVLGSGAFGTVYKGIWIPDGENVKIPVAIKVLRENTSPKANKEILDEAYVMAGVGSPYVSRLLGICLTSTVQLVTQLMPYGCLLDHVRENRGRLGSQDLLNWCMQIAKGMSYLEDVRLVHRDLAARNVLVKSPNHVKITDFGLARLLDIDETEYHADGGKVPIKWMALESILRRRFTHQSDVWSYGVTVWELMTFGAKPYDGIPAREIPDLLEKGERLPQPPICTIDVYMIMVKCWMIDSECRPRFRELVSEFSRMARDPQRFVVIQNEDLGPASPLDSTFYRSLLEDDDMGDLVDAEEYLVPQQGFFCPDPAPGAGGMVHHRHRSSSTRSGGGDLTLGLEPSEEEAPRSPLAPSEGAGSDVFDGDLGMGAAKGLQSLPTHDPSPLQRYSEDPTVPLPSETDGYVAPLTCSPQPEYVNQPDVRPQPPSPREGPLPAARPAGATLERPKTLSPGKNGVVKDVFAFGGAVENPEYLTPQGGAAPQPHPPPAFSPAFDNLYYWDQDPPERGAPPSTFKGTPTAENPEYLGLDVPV

Broadly, the IC50 is the concentration at which inhibition is half-maximal. In the case of `CCN(CC)CC1CCN(c2ncc3ncnc(Nc4ccc(F)c(Cl)c4)c3n2)CC1`, the IC50 in data set [1] is 290 nM; in data set [3], 900 nM. Moreover, the Activity result in [2] is “Non-Toxic”.
Regarding `NC(=S)n1nc(-c2ccc([N+](=O)[O-])cc2)c(/N=N/c2cccc(Cl)c2)c1O`, the IC50 in data set [4] was determined as 300 nM. For the same compound, the CC50 in [5] is > 10000 nM.
In general, EC50 refers to the midpoint of the concentration-response curve. As for `N#CC(=C(/N)Sc1ccccc1N)/C(C#N)=C(\N)Sc1ccccc1N`, the CC50 in [6] (mdck) was > 50000 nM. Moreover, the concentration giving a half-maximal response (EC50) in [7] was 1200 nM; in [8], 74700 nM; in [9], 620000 nM; in data set [10] it was 1210 nM; in data set [11] it was 4430 nM; in data set [12] it was 36600 nM. In addition, the concentration giving a half-maximal response (EC50) was 82700 nM in [13] and 620000 nM in [14]. In data set [3], inhibition was half-maximal at 14200 nM (IC50).
As to `Nc1cc(N)c(N)cc1N`, the CC50 in data set [15], in [16] and in data set [18] was > 1000 nM in each case. Further, in [17], the concentration for half-maximal inhibition (IC50) stood at 1000 nM.
For the compound `COc1cc(-c2cnc3c(N4C[C@@H](C)O[C@@H](C)C4)snc3c2)ccc1N`, in [19], the CC50 was > 20000 nM. A half-maximal effect in data set [3] (EC50) was put at 3500 nM.
In the case of `CC(C)c1cnn2c(NCc3ccccc3-n3cccn3)nc(OC3CCCNC3)nc12` (stereo not given), it took 24 nM to reach a half-maximal effect in data set [20] (EC50). Further, the IC50 in data set [21] and in data set [22] was < 5 nM throughout. For the same compound, the CC50 in data set [23] came to 6200 nM.
The term IC90 denotes the concentration at which the effect reaches the 90% level. As to `NC(=O)c1cccc(-c2cc(Nc3ccc(OC(F)(F)F)cc3)ncn2)c1`, the IC90 in [24] amounted to 15000 nM. Besides, in data set [25], the half-maximal inhibitory concentration (IC50) was found to be 15000 nM. Moreover, the CC50 in [26] amounted to 20000 nM.
One may read the inhibition as how much of the control response was suppressed. As to `CC1=C(C)C2NC(=O)C(CN3C(=S)N([C@@H](C)c4ccccc4)C(=O)C3C3CC3)C=C2C=C1` (stereo not given in full), the IC50 in data set [27] came to 12 nM; in [28], 20 nM; in [29], 20 nM. Further, the 50% effective concentration (EC50) in data set [30] is 20 nM; in data set [31], 20000 nM; in data set [32], 20000 nM. The compound further displayed an inhibition in data set [33] of 61%. In data set [6] (MDCK cells), this compound yielded a CC50 of 3800 nM.
Take `CC(C)c1[nH]n(-c2c(Cl)cccc2Cl)c2nc(Cc3ccc(OCCO)cc3)nc(=O)c1-2`: the figures for the IC50 in [34], in data set [21] and in data set [36] were 27 nM, 71 nM and 90 nM, respectively. In data set [35], this compound gave a CC50 of 40 nM.
